In patent US20230375502A1, “NEUROTRANSMITTER CONCENTRATION MEASURING APPARATUS FOR PROVIDING SECOND DERIVATIVE-BASED NEUROTRANSMITTER CONCENTRATION MEASUREMENT RESULT OF FAST-SCAN CYCLIC VOLTAMMETRY DATA AND METHOD THEREOF” (Daegu Gyeongbuk Institute of Science and Technology, priority 2022, published 2023):

Test system: striatum of Parkinson's disease (PD) model (6-OHDA) mice
Assay: FSCV/SDBR measurement of tonic dopamine concentration in the striatum after levodopa infusion
Format: in vivo
Details: FSCV with SDBR, levodopa injected after about 15 minutes flat signal, increases for about 25 minutes, then re-saturates
Description: FIGS. 8A and 8B illustrate results of measuring a neurotransmitter concentration in an in vivo experiment using the neurotransmitter concentration measuring apparatus according to an embodiment of the present disclosure. FIGS. 8A and 8B illustrate examples for confirming SDBR-based tonic dopamine measurement results, which can be confirmed through long-term measurement using standard FSCV data, through in vivo experiments by a neurotransmitter concentration measuring apparatus according to an embodiment of the present disclosure. The graphs 810 to 813 are shown to compare the results measured in the striatum of mice after levodopa infusion. To confirm the practicality of SDBR in the in vivo environment, FSCV results after levodopa infusion of the striatum of healthy mice and the striatum of Parkinson's disease (PD) model (6-OHDA) mice are shown in FIGS. 8A and 8B. Meanwhile, the graphs 810 to 813 of FIG. 8B show the results measured by FSCV in the striatum 15 minutes after levodopa was directly injected into the experimental mice, and the graphs 810 and 811 indicate that the amplitude of the dopamine peak consistently increases independent of drug infusion due to the background subtraction technique.

For `N[C@@H](Cc1ccc(O)c(O)c1)C(=O)O` [levodopa], the “estimated dopamine concentration after levodopa infusion (SDBR)” value was 72.4 nM.
